Patent US5807535A, “Metal complexes of hydroxyaryl containing aminocarboxylic acid chelating agents” (Australian Nuclear Science & Technology Organisation, priority 1992, dated 1998)
Read-outs that look alike come from different tables or passages of the source.

Experiments:
[1] = Biodistribution of 99mTc complexes in mice; format: in vivo, Balb/c mice
In short: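 Chelator (approx. 1 mg/ml final) labelled with 99mTc via excess stannous chloride at pH approx. 6, labelling efficacy checked by ITLC-SG. Complexes diluted to 15 μCi/100 μl in saline before dosing to mice.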

[2] = Biodistribution of 99mTc complexes in rats; format: in vivo, Australian Albino Wistar Rats; conditions: rat, rats; for tissue uptake at 0.5 min: 30 sec; for tissue uptake at 0.05 h: 3 min
In short: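 Chelators were dissolved in basic saline, brought to about pH 6 with HCl, and reduced with excess stannous chloride before one equivalent volume of sodium 99mTcO4 (10-50 mCi/ml) was added, giving roughly 1 mg/ml chelator. Labelling efficacy was checked by ITLC-SG. Complexes were diluted in saline to 15 μCi/100 μl for rat biodistribution, with tissue uptake expressed as %ID/g.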

[3] = blood, read-out: biodistribution blood
[4] = bone, read-out: biodistribution bone
[5] = brain, read-out: biodistribution brain
[6] = eyes, read-out: biodistribution eyes
[7] = heart, read-out: biodistribution heart
[8] = kidneys, read-out: biodistribution kidneys
[9] = liver, read-out: biodistribution liver
[10] = lungs, read-out: biodistribution lungs
[11] = muscle, read-out: biodistribution muscle
[12] = pancreas, read-out: biodistribution pancreas
[13] = skin, read-out: biodistribution skin
[14] = spleen, read-out: biodistribution spleen
[15] = stomach, read-out: biodistribution stomach
[16] = tail, read-out: biodistribution tail
[17] = thymus, read-out: biodistribution thymus
[18] = thyroid, read-out: biodistribution thyroid
[19] = total git, read-out: biodistribution tot GIT

biodistribution bone ([1]; 1 min): 6.02 % Injected dose
biodistribution kidney ([1]; 1 min): 9.08 % Injected dose
biodistribution liver ([1]; 1 min): 5.72 % Injected dose
biodistribution muscle ([1]; 1 min): 23.78 % Injected dose
biodistribution skin ([1]; 1 min): 18.09 % Injected dose
biodistribution spleen ([1]; 1 min): 0.14 % Injected dose
biodistribution urine ([1]; 1 min): 0 % Injected dose
biodistribution kidney ([1]; 3 min): 8.71 % Injected dose
biodistribution liver ([1]; 3 min): 5.04 % Injected dose
biodistribution muscle ([1]; 3 min): 15.39 % Injected dose
biodistribution skin ([1]; 3 min): 19.66 % Injected dose
biodistribution spleen ([1]; 3 min): 0.16 % Injected dose
biodistribution urine ([1]; 3 min): 2.97 % Injected dose
biodistribution kidney ([1]; 5 min): 6.71 % Injected dose
biodistribution liver ([1]; 5 min): 4.34 % Injected dose
biodistribution muscle ([1]; 5 min): 11.74 % Injected dose
biodistribution skin ([1]; 5 min): 19.83 % Injected dose
biodistribution spleen ([1]; 5 min): 0.12 % Injected dose
biodistribution urine ([1]; 5 min): 6.52 % Injected dose
biodistribution kidney ([1]; 10 min): 5.97 % Injected dose
biodistribution liver ([1]; 10 min): 5.34 % Injected dose
biodistribution muscle ([1]; 10 min): 9.67 % Injected dose
biodistribution skin ([1]; 10 min): 23.93 % Injected dose
biodistribution spleen ([1]; 10 min): 0.11 % Injected dose
biodistribution urine ([1]; 10 min): 10.66 % Injected dose
biodistribution kidney ([1]; 30 min): 3.75 % Injected dose
biodistribution liver ([1]; 30 min): 2.86 % Injected dose
biodistribution muscle ([1]; 30 min): 23.84 % Injected dose
biodistribution skin ([1]; 30 min): 17.37 % Injected dose
biodistribution spleen ([1]; 30 min): 0.06 % Injected dose
biodistribution urine ([1]; 30 min): 5.91 % Injected dose
tissue uptake at 0.5 min [2, 3]: 4.92 %ID/g
tissue uptake at 1 min [2, 3]: 4.22 %ID/g
tissue uptake at 0.05 h [2, 3]: 3.26 %ID/g
tissue uptake at 5 min [2, 3]: 3.13 %ID/g
tissue uptake at 10 min [2, 3]: 2.59 %ID/g
tissue uptake at 0.5 min [2, 4]: 0.37 %ID/g
tissue uptake at 1 min [2, 4]: 0.45 %ID/g
tissue uptake at 0.05 h [2, 4]: 0.42 %ID/g
tissue uptake at 5 min [2, 4]: 0.37 %ID/g
tissue uptake at 10 min [2, 4]: 0.36 %ID/g
tissue uptake at 0.5 min [2, 5]: 0.2 %ID/g
tissue uptake at 1 min [2, 5]: 0.22 %ID/g
tissue uptake at 0.05 h [2, 5]: 0.16 %ID/g
tissue uptake at 5 min [2, 5]: 0.17 %ID/g
tissue uptake at 10 min [2, 5]: 0.14 %ID/g
tissue uptake at 0.5 min [2, 6]: 0.17 %ID/g
tissue uptake at 1 min [2, 6]: 0.23 %ID/g
tissue uptake at 0.05 h [2, 6]: 0.19 %ID/g
tissue uptake at 5 min [2, 6]: 0.18 %ID/g
tissue uptake at 10 min [2, 6]: 0.18 %ID/g
tissue uptake at 0.5 min [2, 7]: 1.81 %ID/g
tissue uptake at 1 min [2, 7]: 1.62 %ID/g
tissue uptake at 0.05 h [2, 7]: 1.24 %ID/g
tissue uptake at 5 min [2, 7]: 1.15 %ID/g
tissue uptake at 10 min [2, 7]: 1.06 %ID/g
tissue uptake at 0.5 min [2, 8]: 4.35 %ID/g
tissue uptake at 1 min [2, 8]: 5.7 %ID/g
tissue uptake at 0.05 h [2, 8]: 4.7 %ID/g
tissue uptake at 5 min [2, 8]: 6.04 %ID/g
tissue uptake at 10 min [2, 8]: 3.61 %ID/g
tissue uptake at 0.5 min [2, 9]: 1.11 %ID/g
tissue uptake at 1 min [2, 9]: 0.97 %ID/g
tissue uptake at 0.05 h [2, 9]: 0.83 %ID/g
tissue uptake at 5 min [2, 9]: 0.79 %ID/g
tissue uptake at 10 min [2, 9]: 0.69 %ID/g
tissue uptake at 0.5 min [2, 10]: 1.66 %ID/g
tissue uptake at 1 min [2, 10]: 1.69 %ID/g
tissue uptake at 0.05 h [2, 10]: 1.31 %ID/g
tissue uptake at 5 min [2, 10]: 1.25 %ID/g
tissue uptake at 10 min [2, 10]: 1.17 %ID/g
tissue uptake at 0.5 min [2, 11]: 0.25 %ID/g
tissue uptake at 1 min [2, 11]: 0.3 %ID/g
tissue uptake at 0.05 h [2, 11]: 0.27 %ID/g
tissue uptake at 5 min [2, 11]: 0.25 %ID/g
tissue uptake at 10 min [2, 11]: 0.23 %ID/g
tissue uptake at 0.5 min [2, 12]: 0.8 %ID/g
tissue uptake at 1 min [2, 12]: 0.73 %ID/g
tissue uptake at 0.05 h [2, 12]: 0.55 %ID/g
tissue uptake at 5 min [2, 12]: 0.56 %ID/g
tissue uptake at 10 min [2, 12]: 0.43 %ID/g
tissue uptake at 0.5 min [2, 13]: 0.31 %ID/g
tissue uptake at 1 min [2, 13]: 0.38 %ID/g
tissue uptake at 0.05 h [2, 13]: 0.43 %ID/g
tissue uptake at 5 min [2, 13]: 0.41 %ID/g
tissue uptake at 10 min [2, 13]: 0.46 %ID/g
tissue uptake at 0.5 min [2, 14]: 0.83 %ID/g
tissue uptake at 1 min [2, 14]: 0.98 %ID/g
tissue uptake at 0.05 h [2, 14]: 0.83 %ID/g
tissue uptake at 5 min [2, 14]: 0.83 %ID/g
tissue uptake at 10 min [2, 14]: 0.72 %ID/g
tissue uptake at 0.5 min [2, 15]: 0.47 %ID/g
tissue uptake at 1 min [2, 15]: 0.42 %ID/g
tissue uptake at 0.05 h [2, 15]: 0.36 %ID/g
tissue uptake at 5 min [2, 15]: 0.37 %ID/g
tissue uptake at 10 min [2, 15]: 0.24 %ID/g
tissue uptake at 0.5 min [2, 16]: 0.22 %ID/g
tissue uptake at 1 min [2, 16]: 0.14 %ID/g
tissue uptake at 0.05 h [2, 16]: 0.17 %ID/g
tissue uptake at 5 min [2, 16]: 0.15 %ID/g
tissue uptake at 10 min [2, 16]: 0.19 %ID/g
tissue uptake at 0.5 min [2, 17]: 0.63 %ID/g
tissue uptake at 1 min [2, 17]: 0.56 %ID/g
tissue uptake at 0.05 h [2, 17]: 0.45 %ID/g
tissue uptake at 5 min [2, 17]: 0.54 %ID/g
tissue uptake at 10 min [2, 17]: 0.39 %ID/g
tissue uptake at 0.5 min [2, 18]: 1.85 %ID/g
tissue uptake at 1 min [2, 18]: 2.43 %ID/g
tissue uptake at 0.05 h [2, 18]: 1.59 %ID/g
tissue uptake at 5 min [2, 18]: 1.73 %ID/g
tissue uptake at 10 min [2, 18]: 1.71 %ID/g
tissue uptake at 0.5 min [2, 19]: 0.35 %ID/g
tissue uptake at 1 min [2, 19]: 0.34 %ID/g
tissue uptake at 0.05 h [2, 19]: 0.31 %ID/g
tissue uptake at 5 min [2, 19]: 0.29 %ID/g
tissue uptake at 10 min [2, 19]: 0.27 %ID/g
SMILES: Nc1ccc(O)c(NC(=O)CN(CCN(CC(=O)O)CC(=O)Nc2cc(N)ccc2O)CC(=O)O)c1 [Compound 5]
